Laboratory results: ChEMBL document CHEMBL1130842, “Synthesis and in vitro cytotoxicity of lipophilic platinum(II) complexes” (Bioorg Med Chem Lett, 1998)
Converted amounts (≈) assume the structure as drawn.

What was measured:
Format in all cases: functional, cell-based
P388 = experiment: Cytotoxicity was evaluated against leukemia P388 cell-line by MTT assay; details: Mus musculus
Lung NSCLC-N6 cell-line = experiment: Cytotoxicity was evaluated against lung NSCLC-N6 cell-line by MTT assay; details: Homo sapiens
E39 = experiment: Cytotoxicity was evaluated against renal E39 cell-line by MTT assay; details: Homo sapiens
M96 = experiment: Cytotoxicity was evaluated against melanoma M96 cell-line by MTT assay; details: Homo sapiens

## CCCCCCCCCCCCCCC(N)CN (centres undefined)
P388
  IC50: 0.1 µg/mL (≈ 0.39 µM)
Lung NSCLC-N6 cell-line
  IC50: 1.1 µg/mL (≈ 4.29 µM)
E39
  IC50: 5.3 µg/mL (≈ 20.7 µM)
M96
  IC50: 7.8 µg/mL (≈ 30.4 µM)
